Test results as given in the kinase profiling compilation of Christmann-Franck et al. (2016).
Values belong to the compound of their own block, whether it stands above or below them.

Columns and labels:
Assay in all cases: Caliper, Mobility shift assay off-chip
MUSK (human) = MUSK (human) (UniProt O15146)
CHUK (human) = CHUK (human) (UniProt O15111)
FGR (human) = FGR (human) (UniProt P09769)
CAMK4 (human) = CAMK4 (human) (UniProt Q16566)
LYN (human) = LYN (human) (UniProt P07948)
STK33 (human) = STK33 (human) (UniProt Q9BYT3)
MET (human) = MET (human) (UniProt P08581)
TLK2 (human) = TLK2 (human) (UniProt Q86UE8)
IRAK1 (human) = IRAK1 (human) (UniProt P51617)
ACVR1B (human) = ACVR1B (human) (UniProt P36896)
BRSK1 (human) = BRSK1 (human) (UniProt Q8TDC3)
PAK6 (human) = PAK6 (human) (UniProt Q9NQU5)
ROCK2 (human) = ROCK2 (human) (UniProt O75116)
FES (human) = FES (human) (UniProt P07332)
INSRR (human) = INSRR (human) (UniProt P14616)
MINK1 (human) = MINK1 (human) (UniProt Q8N4C8)
EPHA1 (human) = EPHA1 (human) (UniProt P21709)
PTK2 (human) = PTK2 (human) (UniProt Q05397)
MAP2K7 (human) = MAP2K7 (human) (UniProt O14733)
NTRK1 (human) = NTRK1 (human) (UniProt P04629)
[1] = system: EGFR (human), P00533 [T790M]
PTK6 (human) = PTK6 (human) (UniProt Q13882)
[2] = system: FLT3 (human), P36888 [D835Y]
PLK2 (human) = PLK2 (human) (UniProt Q9NYY3)
CSNK1D (human) = CSNK1D (human) (UniProt P48730)
PTK2B (human) = PTK2B (human) (UniProt Q14289)
TAOK2 (human) = TAOK2 (human) (UniProt Q9UL54)
SGK2 (human) = SGK2 (human) (UniProt Q9HBY8)
ABL1 (human) = ABL1 (human) (UniProt P00519)
GRK6 (human) = GRK6 (human) (UniProt P43250)
MAP3K5 (human) = MAP3K5 (human) (UniProt Q99683)
EPHB3 (human) = EPHB3 (human) (UniProt P54753)
YES1 (human) = YES1 (human) (UniProt P07947)
WNK2 (human) = WNK2 (human) (UniProt Q9Y3S1)
NEK11 (human) = NEK11 (human) (UniProt Q8NG66)
DMPK (human) = DMPK (human) (UniProt Q09013)
[3] = system: KIT (human), P10721 [V654A]
HCK (human) = HCK (human) (UniProt P08631)
INSR (human) = INSR (human) (UniProt P06213)
EPHB2 (human) = EPHB2 (human) (UniProt P29323)
CAMK2D (human) = CAMK2D (human) (UniProt Q13557)
TNK2 (human) = TNK2 (human) (UniProt Q07912); settings: compound 10.0 µM

Chain of YES1 (human) (P07947 whole entry, looked up): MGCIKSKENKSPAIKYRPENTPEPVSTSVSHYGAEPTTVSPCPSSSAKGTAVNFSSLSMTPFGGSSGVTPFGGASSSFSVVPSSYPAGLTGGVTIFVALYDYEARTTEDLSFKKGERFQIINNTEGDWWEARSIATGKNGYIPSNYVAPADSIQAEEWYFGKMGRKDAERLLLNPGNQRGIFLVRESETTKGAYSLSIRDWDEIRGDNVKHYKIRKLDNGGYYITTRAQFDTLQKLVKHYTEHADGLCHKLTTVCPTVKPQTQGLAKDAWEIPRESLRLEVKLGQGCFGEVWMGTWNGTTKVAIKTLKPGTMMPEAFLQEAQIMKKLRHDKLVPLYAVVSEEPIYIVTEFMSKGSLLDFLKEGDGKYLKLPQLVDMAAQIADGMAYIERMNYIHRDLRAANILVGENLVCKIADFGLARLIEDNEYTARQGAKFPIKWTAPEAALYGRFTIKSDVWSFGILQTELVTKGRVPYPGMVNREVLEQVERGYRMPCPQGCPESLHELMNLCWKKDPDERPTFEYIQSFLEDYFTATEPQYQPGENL
Chain of MAP3K5 (human) (Q99683 whole entry, looked up): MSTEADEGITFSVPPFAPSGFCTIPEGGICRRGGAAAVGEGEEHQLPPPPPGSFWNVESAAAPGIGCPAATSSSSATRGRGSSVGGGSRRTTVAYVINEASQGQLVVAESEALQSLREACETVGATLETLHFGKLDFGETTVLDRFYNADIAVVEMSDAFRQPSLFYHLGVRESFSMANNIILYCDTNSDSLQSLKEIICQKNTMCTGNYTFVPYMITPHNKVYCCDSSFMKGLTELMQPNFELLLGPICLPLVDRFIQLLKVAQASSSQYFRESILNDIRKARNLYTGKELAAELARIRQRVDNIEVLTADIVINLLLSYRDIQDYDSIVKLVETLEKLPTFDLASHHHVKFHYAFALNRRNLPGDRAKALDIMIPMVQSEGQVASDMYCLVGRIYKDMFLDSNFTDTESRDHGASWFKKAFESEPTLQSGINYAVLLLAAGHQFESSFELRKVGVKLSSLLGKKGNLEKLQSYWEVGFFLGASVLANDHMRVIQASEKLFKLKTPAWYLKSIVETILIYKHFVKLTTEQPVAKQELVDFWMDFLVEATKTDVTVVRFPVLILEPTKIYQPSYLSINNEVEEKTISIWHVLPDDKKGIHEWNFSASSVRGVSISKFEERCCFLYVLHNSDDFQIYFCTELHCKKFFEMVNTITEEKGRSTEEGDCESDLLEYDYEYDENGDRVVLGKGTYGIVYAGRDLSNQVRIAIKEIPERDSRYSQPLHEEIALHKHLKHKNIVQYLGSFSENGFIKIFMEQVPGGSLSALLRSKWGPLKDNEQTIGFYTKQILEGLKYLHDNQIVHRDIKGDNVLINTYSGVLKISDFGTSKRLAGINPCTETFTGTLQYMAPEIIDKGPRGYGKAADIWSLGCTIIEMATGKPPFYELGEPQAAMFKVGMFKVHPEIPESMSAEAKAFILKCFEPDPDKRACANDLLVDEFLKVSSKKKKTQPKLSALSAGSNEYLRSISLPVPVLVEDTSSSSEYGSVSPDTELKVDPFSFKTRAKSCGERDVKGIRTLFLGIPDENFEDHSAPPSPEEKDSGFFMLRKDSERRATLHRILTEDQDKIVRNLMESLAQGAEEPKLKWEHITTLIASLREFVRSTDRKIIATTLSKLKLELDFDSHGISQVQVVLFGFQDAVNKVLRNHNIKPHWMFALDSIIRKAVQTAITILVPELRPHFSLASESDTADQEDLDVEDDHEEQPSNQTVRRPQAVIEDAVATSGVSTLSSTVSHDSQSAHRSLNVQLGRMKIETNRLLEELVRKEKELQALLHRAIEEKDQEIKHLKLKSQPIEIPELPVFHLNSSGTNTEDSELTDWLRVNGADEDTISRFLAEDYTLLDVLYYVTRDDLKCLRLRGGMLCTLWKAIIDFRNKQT
Chain of CAMK4 (human) (Q16566 whole entry, looked up): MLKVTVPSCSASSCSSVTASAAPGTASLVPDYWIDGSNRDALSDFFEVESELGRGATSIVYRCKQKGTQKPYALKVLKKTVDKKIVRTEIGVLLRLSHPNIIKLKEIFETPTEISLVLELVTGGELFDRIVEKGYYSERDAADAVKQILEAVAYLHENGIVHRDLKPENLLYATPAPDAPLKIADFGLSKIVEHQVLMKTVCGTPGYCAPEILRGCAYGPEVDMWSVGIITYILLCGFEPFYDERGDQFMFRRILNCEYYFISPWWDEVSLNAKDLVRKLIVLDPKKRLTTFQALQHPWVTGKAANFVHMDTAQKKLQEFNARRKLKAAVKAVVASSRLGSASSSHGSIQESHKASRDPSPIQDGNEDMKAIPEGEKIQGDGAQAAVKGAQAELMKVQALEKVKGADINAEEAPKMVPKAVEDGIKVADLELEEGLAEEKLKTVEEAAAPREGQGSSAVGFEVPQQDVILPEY
Chain of PLK2 (human) (Q9NYY3 whole entry, looked up): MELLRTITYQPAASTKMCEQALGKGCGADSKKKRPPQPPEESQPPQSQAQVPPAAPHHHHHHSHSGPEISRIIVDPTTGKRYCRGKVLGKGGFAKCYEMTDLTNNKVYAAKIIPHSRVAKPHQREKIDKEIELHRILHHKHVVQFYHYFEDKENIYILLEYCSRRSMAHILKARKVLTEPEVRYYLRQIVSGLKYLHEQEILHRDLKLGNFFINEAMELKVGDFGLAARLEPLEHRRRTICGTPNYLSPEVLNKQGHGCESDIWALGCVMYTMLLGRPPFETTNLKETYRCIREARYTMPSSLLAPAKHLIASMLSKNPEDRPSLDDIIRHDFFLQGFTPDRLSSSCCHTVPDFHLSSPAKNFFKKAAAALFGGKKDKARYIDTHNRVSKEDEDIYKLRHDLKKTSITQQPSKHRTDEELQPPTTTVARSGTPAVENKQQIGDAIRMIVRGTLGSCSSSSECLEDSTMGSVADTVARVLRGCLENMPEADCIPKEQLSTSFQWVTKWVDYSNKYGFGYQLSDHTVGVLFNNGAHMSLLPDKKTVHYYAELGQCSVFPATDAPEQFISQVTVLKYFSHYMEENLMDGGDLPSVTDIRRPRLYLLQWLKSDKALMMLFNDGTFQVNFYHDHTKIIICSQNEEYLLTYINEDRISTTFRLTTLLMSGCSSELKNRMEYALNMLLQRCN
Chain of PTK2B (human) (Q14289 whole entry, looked up): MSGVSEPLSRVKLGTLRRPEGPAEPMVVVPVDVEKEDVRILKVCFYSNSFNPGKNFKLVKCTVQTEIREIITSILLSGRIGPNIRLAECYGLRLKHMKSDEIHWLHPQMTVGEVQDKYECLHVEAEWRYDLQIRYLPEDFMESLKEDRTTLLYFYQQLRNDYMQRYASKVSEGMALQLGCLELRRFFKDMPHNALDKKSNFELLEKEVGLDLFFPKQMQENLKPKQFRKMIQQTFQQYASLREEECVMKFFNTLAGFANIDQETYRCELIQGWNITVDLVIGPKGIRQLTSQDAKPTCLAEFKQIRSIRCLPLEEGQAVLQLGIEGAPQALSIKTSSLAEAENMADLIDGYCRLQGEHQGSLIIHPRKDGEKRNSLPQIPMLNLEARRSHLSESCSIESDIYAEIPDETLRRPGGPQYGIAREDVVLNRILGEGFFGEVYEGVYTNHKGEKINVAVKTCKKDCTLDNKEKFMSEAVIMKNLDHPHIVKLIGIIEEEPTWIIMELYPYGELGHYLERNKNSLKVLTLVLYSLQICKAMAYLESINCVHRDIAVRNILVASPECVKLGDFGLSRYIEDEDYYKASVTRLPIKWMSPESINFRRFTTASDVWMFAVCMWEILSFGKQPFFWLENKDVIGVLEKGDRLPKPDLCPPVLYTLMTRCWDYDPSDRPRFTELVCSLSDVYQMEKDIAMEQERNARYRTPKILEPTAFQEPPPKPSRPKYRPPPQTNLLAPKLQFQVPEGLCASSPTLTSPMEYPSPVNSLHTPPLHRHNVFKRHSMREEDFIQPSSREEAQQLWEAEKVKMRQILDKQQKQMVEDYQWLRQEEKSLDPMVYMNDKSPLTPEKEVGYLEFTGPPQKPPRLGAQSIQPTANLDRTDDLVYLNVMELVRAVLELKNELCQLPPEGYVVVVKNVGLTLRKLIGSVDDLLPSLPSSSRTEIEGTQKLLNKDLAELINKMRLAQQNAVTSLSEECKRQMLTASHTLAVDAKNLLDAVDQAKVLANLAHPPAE
Chain of NTRK1 (human) (P04629 whole entry, looked up): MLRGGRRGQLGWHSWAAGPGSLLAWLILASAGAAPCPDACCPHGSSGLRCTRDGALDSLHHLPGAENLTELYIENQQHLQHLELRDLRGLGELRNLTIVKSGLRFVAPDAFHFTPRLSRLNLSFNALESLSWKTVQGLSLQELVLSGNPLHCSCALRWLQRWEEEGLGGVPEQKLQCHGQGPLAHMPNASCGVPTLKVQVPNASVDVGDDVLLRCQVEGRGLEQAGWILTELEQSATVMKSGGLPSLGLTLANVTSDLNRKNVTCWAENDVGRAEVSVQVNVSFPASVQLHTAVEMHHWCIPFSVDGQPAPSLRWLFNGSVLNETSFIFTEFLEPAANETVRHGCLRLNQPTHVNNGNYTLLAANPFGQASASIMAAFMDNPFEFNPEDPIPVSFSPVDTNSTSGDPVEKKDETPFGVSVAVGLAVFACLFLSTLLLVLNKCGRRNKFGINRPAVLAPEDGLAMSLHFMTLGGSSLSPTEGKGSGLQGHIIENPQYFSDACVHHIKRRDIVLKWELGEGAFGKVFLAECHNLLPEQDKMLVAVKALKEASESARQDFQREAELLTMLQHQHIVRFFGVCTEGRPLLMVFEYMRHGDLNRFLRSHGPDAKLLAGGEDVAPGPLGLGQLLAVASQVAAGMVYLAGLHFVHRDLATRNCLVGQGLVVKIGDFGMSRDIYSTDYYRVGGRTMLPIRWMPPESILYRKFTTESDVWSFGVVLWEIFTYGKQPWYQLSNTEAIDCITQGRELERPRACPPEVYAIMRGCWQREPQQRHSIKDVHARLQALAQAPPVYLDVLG

residual activity (MUSK (human); compound 1.0 µM): 89% | residual activity (CHUK (human); compound 1.0 µM): 120% | residual activity (FGR (human); compound 1.0 µM): 97% | residual activity (CAMK4 (human); compound 1.0 µM): 102% | residual activity (LYN (human); compound 1.0 µM): 96% | residual activity (STK33 (human); compound 1.0 µM): 82% | residual activity (MET (human); compound 1.0 µM): 137% | residual activity (TLK2 (human); compound 1.0 µM): 91% | residual activity (IRAK1 (human); compound 1.0 µM): 99% | residual activity (ACVR1B (human); compound 1.0 µM): 99% | residual activity (BRSK1 (human); compound 1.0 µM): 76% | residual activity (PAK6 (human); compound 1.0 µM): 145% | residual activity (ROCK2 (human); compound 1.0 µM): 59% | residual activity (FES (human); compound 1.0 µM): 96% | residual activity (INSRR (human); compound 1.0 µM): 102% | residual activity (MINK1 (human); compound 1.0 µM): 97% | residual activity (EPHA1 (human); compound 1.0 µM): 82% | residual activity (PTK2 (human); compound 1.0 µM): 80% | residual activity (MAP2K7 (human); compound 1.0 µM): 106% | residual activity (NTRK1 (human); compound 1.0 µM): 31% | residual activity ([1]; compound 1.0 µM): 82% | residual activity (PTK6 (human); compound 1.0 µM): 97% | residual activity ([2]; compound 1.0 µM): 2% | residual activity (PLK2 (human); compound 1.0 µM): 112% | residual activity (CSNK1D (human); compound 1.0 µM): 94% | residual activity (PTK2B (human); compound 1.0 µM): 85% | residual activity (TAOK2 (human); compound 1.0 µM): 37% | residual activity (SGK2 (human); compound 1.0 µM): 94% | residual activity (ABL1 (human); compound 1.0 µM): 82% | residual activity (GRK6 (human); compound 1.0 µM): 100% | residual activity (MAP3K5 (human); compound 1.0 µM): 65% | residual activity (EPHB3 (human); compound 1.0 µM): 93% | residual activity (YES1 (human); compound 1.0 µM): 110% | residual activity (WNK2 (human); compound 1.0 µM): 95% | residual activity (NEK11 (human); compound 1.0 µM): 117% | residual activity (DMPK (human); compound 1.0 µM): 94% | residual activity ([3]; compound 1.0 µM): 73% | residual activity (HCK (human); compound 1.0 µM): 99% | residual activity (INSR (human); compound 1.0 µM): 91% | residual activity (EPHB2 (human); compound 1.0 µM): 103% | residual activity (CAMK2D (human); compound 1.0 µM): 3%
Structure (SMILES): O=C(NCCCNc1nc(Nc2cccc(NC(=O)N3CCCC3)c2)ncc1I)c1cccs1

residual activity (MUSK (human); compound 1.0 µM): 91% | residual activity (CHUK (human); compound 1.0 µM): 96% | residual activity (FGR (human); compound 1.0 µM): 71% | residual activity (CAMK4 (human); compound 1.0 µM): 61% | residual activity (LYN (human); compound 1.0 µM): 99% | residual activity (MET (human); compound 1.0 µM): 117% | residual activity (ACVR1B (human); compound 1.0 µM): 138% | residual activity (PAK6 (human); compound 1.0 µM): 31% | residual activity (ROCK2 (human); compound 1.0 µM): 87% | residual activity (FES (human); compound 1.0 µM): 41% | residual activity (INSRR (human); compound 1.0 µM): 103% | residual activity (MINK1 (human); compound 1.0 µM): 134% | residual activity (MAP2K7 (human); compound 1.0 µM): 103% | residual activity (NTRK1 (human); compound 1.0 µM): 46% | residual activity (PTK6 (human); compound 1.0 µM): 93% | residual activity ([2]; compound 1.0 µM): 5% | residual activity (PLK2 (human); compound 1.0 µM): 102% | residual activity (PTK2B (human); compound 1.0 µM): 21% | residual activity (SGK2 (human); compound 1.0 µM): 70% | residual activity (ABL1 (human); compound 1.0 µM): 113% | residual activity (MAP3K5 (human); compound 1.0 µM): 117% | residual activity (EPHB3 (human); compound 1.0 µM): 136% | residual activity (YES1 (human); compound 1.0 µM): 77% | residual activity (DMPK (human); compound 1.0 µM): 114% | residual activity (HCK (human); compound 1.0 µM): 148% | residual activity (INSR (human); compound 1.0 µM): 103% | residual activity (EPHB2 (human); compound 1.0 µM): 239%
Structure (SMILES): Cc1n[nH]c2c1c(=O)n(CCCN)c1ccc(Cl)cc21

Structure (SMILES): O=C(N[C@@H](COc1ccc2[nH]c(=O)[nH]c2c1)c1ccccc1)c1cccn(Cc2ccc(F)c(F)c2)c1=O
residual activity (MUSK (human); compound 10.0 µM): 98% | residual activity (CHUK (human); compound 10.0 µM): 125% | residual activity (FGR (human); compound 10.0 µM): 100% | residual activity (CAMK4 (human); compound 10.0 µM): 96% | residual activity (LYN (human); compound 10.0 µM): 115% | residual activity (STK33 (human); compound 10.0 µM): 104% | residual activity (MET (human); compound 10.0 µM): 95% | residual activity (TLK2 (human); compound 10.0 µM): 100% | residual activity (IRAK1 (human); compound 10.0 µM): 100% | residual activity (ACVR1B (human); compound 10.0 µM): 115% | residual activity (BRSK1 (human); compound 10.0 µM): 109% | residual activity (PAK6 (human); compound 10.0 µM): 101% | residual activity (ROCK2 (human); compound 10.0 µM): 109% | residual activity (FES (human); compound 10.0 µM): 122% | residual activity (INSRR (human); compound 10.0 µM): 108% | residual activity (MINK1 (human); compound 10.0 µM): 113% | residual activity (EPHA1 (human); compound 10.0 µM): 107% | residual activity (PTK2 (human); compound 10.0 µM): 103% | residual activity (MAP2K7 (human); compound 10.0 µM): 95% | residual activity (NTRK1 (human); compound 10.0 µM): 108% | residual activity ([1]; compound 10.0 µM): 107% | residual activity (TNK2 (human)): 101% | residual activity (PTK6 (human); compound 10.0 µM): 116% | residual activity ([2]; compound 10.0 µM): 99% | residual activity (PLK2 (human); compound 10.0 µM): 97% | residual activity (CSNK1D (human); compound 10.0 µM): 110% | residual activity (PTK2B (human); compound 10.0 µM): 98% | residual activity (TAOK2 (human); compound 10.0 µM): 98% | residual activity (SGK2 (human); compound 10.0 µM): 97% | residual activity (ABL1 (human); compound 10.0 µM): 115% | residual activity (GRK6 (human); compound 10.0 µM): 108% | residual activity (MAP3K5 (human); compound 10.0 µM): 99% | residual activity (EPHB3 (human); compound 10.0 µM): 129% | residual activity (YES1 (human); compound 10.0 µM): 91% | residual activity (WNK2 (human); compound 10.0 µM): 104% | residual activity (NEK11 (human); compound 10.0 µM): 126% | residual activity (DMPK (human); compound 10.0 µM): 105% | residual activity ([3]; compound 10.0 µM): 102% | residual activity (HCK (human); compound 10.0 µM): 110% | residual activity (INSR (human); compound 10.0 µM): 98% | residual activity (EPHB2 (human); compound 10.0 µM): 90% | residual activity (CAMK2D (human); compound 10.0 µM): 92%
